According to patent US8658666B2, “Substituted imidazoquinolines and imidazonaphthyridines” (3M Innovative Properties Company, priority 2005, dated 2014):

| Structure (SMILES) | melting point |
| --- | --- |
| CCc1nc2c(N)nc3cc(CCC#N)ccc3c2n1CC1CCOCC1 [Example 121, 3-[4-Amino-2-ethyl-1-(tetrahydro-2H-pyran-4-ylmethyl)-1H-imidazo[4,5-c]quinolin-7-yl]propanenitrile] | 273 to 275 °C |
| CCc1nc2c(N)nc3cc(CCC(N)=O)ccc3c2n1CC1CCOCC1 [Example 122, 3-[4-Amino-2-ethyl-1-(tetrahydro-2H-pyran-4-ylmethyl)-1H-imidazo[4,5-c]quinolin-7-yl]propanamide] | 197 to 199 °C |
| CCc1nc2c(N)nc3cc(CCCN)ccc3c2n1CC1CCOCC1 [Example 123, 7-(3-Aminopropyl)-2-ethyl-1-(tetrahydro-2H-pyran-4-ylmethyl)-1H-imidazo[4,5-c]quinolin-4-amine] | 217 to 220 °C |
| CCc1nc2c(N)nc3cc(CCCNS(C)(=O)=O)ccc3c2n1CC1CCOCC1 [Example 124, N-{3-[4-Amino-2-ethyl-1-(tetrahydro-2H-pyran-4-ylmethyl)-1H-imidazo[4,5-c]quinolin-7-yl]propyl}methanesulfonamide] | 168 to 170 °C |
| CCc1nc2c(N)nc3cc(CCCNC(C)=O)ccc3c2n1CC1CCOCC1 [Example 125, N-{3-[4-amino-2-ethyl-1-(tetrahydro-2H-pyran-4-ylmethyl)-1H-imidazo[4,5-c]quinolin-7-yl]propyl}acetamide] | 209 to 211 °C |
| CCc1nc2c(N)nc3cc(CCCNC(=O)NC(C)C)ccc3c2n1CC1CCOCC1 [Example 126, N-{3-[4-amino-2-ethyl-1-(tetrahydro-2H-pyran-4-ylmethyl)-1H-imidazo[4,5-c]quinolin-7-yl]propyl}-N′-isopropylurea] | 213 to 216 °C |
| COc1cccc(CNCc2ccc3nc(N)c4ncn(CC(C)C)c4c3c2)c1 [Example 127, 1-Isobutyl-8-{[(3-methoxybenzyl)amino]methyl}-1H-imidazo[4,5-c]quinolin-4-amine] | 125 to 126 °C |
| CCc1nc2c(N)nc3cc(/C=C/C(=O)N(C)C)ccc3c2n1CC1CCOCC1 [Example 128, (2E)-3-[4-Amino-2-ethyl-1-(tetrahydro-2H-pyran-4-ylmethyl)-1H-imidazo[4,5-c]quinolin-7-yl]-N,N-dimethylprop-2-enamide] | > 260 °C |
| CCc1nc2c(N)nc3cc(CCC(=O)N(C)C)ccc3c2n1CC1CCOCC1 [Example 129, 3-[4-Amino-2-ethyl-1-(tetrahydro-2H-pyran-4-ylmethyl)-1H-imidazo[4,5-c]quinolin-7-yl]-N,N-dimethylpropanamide] | 219 to 220 °C |
| CCc1nc2c(N)nc3cc(/C=C/C(=O)N4CCOCC4)ccc3c2n1CC1CCOCC1 [Example 130, 2-Ethyl-7-[(1E)-3-morpholin-4-yl-3-oxoprop-1-enyl]-1-(tetrahydro-2H-pyran-4-ylmethyl)-1H-imidazo[4,5-c]quinolin-4-amine] | > 260 °C |
| CCOC(=O)/C=C/c1ccc2c(c1)nc(N)c1nc(CC)n(CC3CCOCC3)c12 [Example 131, Ethyl (2E)-3-[4-amino-2-ethyl-1-(tetrahydro-2H-pyran-4-ylmethyl)-1H-imidazo[4,5-c]quinolin-7-yl]prop-2-enoate] | 209 to 210 °C |
| CCOC(=O)CCc1ccc2c(c1)nc(N)c1nc(CC)n(CC3CCOCC3)c12 [Example 132, Ethyl 3-[4-amino-2-ethyl-1-(tetrahydro-2H-pyran-4-ylmethyl)-1H-imidazo[4,5-c]quinolin-7-yl]propanoate] | 172 to 173 °C |
| CCOCc1nc2c(N)nc3cc(C=O)ccc3c2n1CC(C)(C)O [Example 133, 4-Amino-2-(ethoxymethyl)-1-(2-hydroxy-2-methylpropyl)-1H-imidazo[4,5-c]quinoline-7-carbaldehyde] | 203 to 205 °C |
| CCOCc1nc2c(N)nc3cc(CCCO)ccc3c2n1CC(C)(C)O [Example 134, 3-[4-Amino-2-(ethoxymethyl)-1-(2-hydroxy-2-methylpropyl)-1H-imidazo[4,5-c]quinolin-7-yl]propan-1-ol] | 177 to 178 °C |
| CCOCc1nc2c(N)nc3cc(CCCN4CCOCC4)ccc3c2n1CC(C)(C)O [Example 135, 1-[4-Amino-2-(ethoxymethyl)-7-(3-morpholin-4-ylpropyl)-1H-imidazo[4,5-c]quinolin-1-yl]-2-methylpropan-2-ol] | 132 to 133 °C |
